Results published in EPA's CvTdb concentration-time database.

How the values were obtained:
Experiment in all cases: concentration in plasma after dosing
Rat [1] = conditions: dosed: Formamide, 10 mg/kg, iv, Male, F344
Rat [2] = conditions: 2 h; dosed: Formamide; 10 mg/kg; iv; Male; F344
Rat [3] = conditions: 5 h; dosed: Formamide; 10 mg/kg; iv; Male; F344
Rat [4] = conditions: 2 h; dosed: Formamide; 10 mg/kg; iv; Male; F344; remark: listed apart in the source
Rat [5] = conditions: dosed: Formamide, 10 mg/kg, iv, Male, F344; remark: listed apart in the source
Rat [6] = conditions: dosed: Formamide, 10 mg/kg, iv, Male, F344; remark: listed apart in the source
Rat [7] = conditions: 0.5 h; dosed: Formamide; 30 mg/kg; iv; Female; F344
Rat [8] = conditions: 5 h; dosed: Formamide; 10 mg/kg; iv; Male; F344; remark: listed apart in the source
Rat [9] = conditions: dosed: Formamide, 10 mg/kg, iv, Male, F344; remark: listed apart in the source
Rat [10] = conditions: dosed: Formamide, iv
Rat [11] = conditions: dosed: Formamide, 10 mg/kg, iv, Male, F344; remark: listed apart in the source
Rat [12] = conditions: 5 h; dosed: Formamide; 10 mg/kg; iv; Male; F344; remark: listed apart in the source
Rat [13] = conditions: dosed: Formamide, 30 mg/kg, iv, Female, F344
Rat [14] = conditions: dosed: Formamide, 10 mg/kg, iv, Male, F344; remark: listed apart in the source
Rat [15] = conditions: dosed: Formamide, 30 mg/kg, iv, Female, F344; remark: listed apart in the source
Rat [16] = conditions: 2 h; dosed: Formamide; 10 mg/kg; iv; Male; F344; remark: listed apart in the source
Rat [17] = conditions: dosed: Formamide, 10 mg/kg, iv, Male, F344; remark: listed apart in the source
Rat [18] = conditions: 2 h; dosed: Formamide; 10 mg/kg; iv; Male; F344; remark: listed apart in the source
Rat [19] = conditions: dosed: Formamide, 10 mg/kg, iv, Male, F344; remark: listed apart in the source
Rat [20] = conditions: dosed: Formamide, 30 mg/kg, iv, Female, F344; remark: listed apart in the source
Rat [21] = conditions: dosed: Formamide, 10 mg/kg, iv, Male, F344; remark: listed apart in the source
Rat [22] = conditions: 0.5 h; dosed: Formamide; 10 mg/kg; iv; Male; F344
Rat [23] = conditions: dosed: Formamide, 10 mg/kg, iv, Male, F344; remark: listed apart in the source
Rat [24] = conditions: dosed: Formamide, 30 mg/kg, iv, Female, F344; remark: listed apart in the source
Rat [25] = conditions: dosed: Formamide, 10 mg/kg, iv, Male, F344; remark: listed apart in the source
Rat [26] = conditions: dosed: Formamide, 10 mg/kg, iv, Male, F344; remark: listed apart in the source
Rat [27] = conditions: dosed: Formamide, 10 mg/kg, iv, Female, F344
Rat [28] = conditions: 0.5 h; dosed: Formamide; 10 mg/kg; iv; Female; Harlan Sprague-Dawley
Rat [29] = conditions: 2 h; dosed: Formamide; 10 mg/kg; iv; Male; F344; remark: listed apart in the source
Rat [30] = conditions: 5 h; dosed: Formamide; 10 mg/kg; iv; Male; F344; remark: listed apart in the source
Rat [31] = conditions: dosed: Formamide, 30 mg/kg, iv, Female, F344; remark: listed apart in the source
Rat [32] = conditions: dosed: Formamide, 10 mg/kg, iv, Male, F344; remark: listed apart in the source
Rat [33] = conditions: dosed: Formamide, 10 mg/kg, iv, Male, F344; remark: listed apart in the source
Rat [34] = conditions: dosed: Formamide, 10 mg/kg, iv, Female, Harlan Sprague-Dawley
Rat [35] = conditions: dosed: Formamide, 10 mg/kg, iv, Male, F344; remark: listed apart in the source
Rat [36] = conditions: 3 h; dosed: Formamide; 10 mg/kg; iv; Male; F344
Rat [37] = conditions: dosed: Formamide, 10 mg/kg, iv, Male, F344; remark: listed apart in the source
Rat [38] = conditions: dosed: Formamide, 10 mg/kg, iv, Female, F344; remark: listed apart in the source
Rat [39] = conditions: dosed: Formamide, 10 mg/kg, iv, Male, F344; remark: listed apart in the source
Rat [40] = conditions: dosed: Formamide, 10 mg/kg, iv, Male, F344; remark: listed apart in the source
Rat [41] = conditions: 0.5 h; dosed: Formamide; 10 mg/kg; iv; Male; F344; remark: listed apart in the source
Rat [42] = conditions: dosed: Formamide, 30 mg/kg, iv, Female, F344; remark: listed apart in the source
Rat [43] = conditions: dosed: Formamide, 10 mg/kg, iv, Female, Harlan Sprague-Dawley; remark: listed apart in the source
Rat [44] = conditions: 0.5 h; dosed: Formamide; 10 mg/kg; iv; Female; Harlan Sprague-Dawley; remark: listed apart in the source
Rat [45] = conditions: dosed: Formamide, 30 mg/kg, iv, Female, F344; remark: listed apart in the source

NC=O [Formamide]
Conditions | concentration in plasma [ng/mL]
Rat [1], 0.25 h | 6900
Rat [1], 24 h | 2900
Rat [5], 1 h | 12700
Rat [5], 3 h | 12800
Rat [6], 10 min | 15400
Rat [6], 18 h | 4700
Rat [9], 10 min | 10700
Rat [9], 18 h | 2900
Rat [11], 5 min | 2100
Rat [11], 36 h | 2100
Rat [13], 0.25 h | 16100
Rat [13], 24 h | 10100
Rat [14], 1 h | 14500
Rat [14], 3 h | 12400
Rat [15], 5 min | 39500
Rat [15], 36 h | 3400
Rat [17], 5 min | 11200
Rat [17], 36 h | 1400
Rat [19], 5 min | 12900
Rat [19], 36 h | 2200
Rat [20], 8 h | 27500
Rat [20], 12 h | 22800
Rat [21], 1 h | 13500
Rat [21], 3 h | 13300
Rat [23], 8 h | 9200
Rat [23], 12 h | 6700
Rat [24], 5 min | 43900
Rat [24], 36 h | 2500
Rat [25], 1 h | 13400
Rat [25], 3 h | 11700
Rat [26], 0.25 h | 13300
Rat [26], 24 h | 3900
Rat [27], 10 min | 12500
Rat [27], 18 h | 3300
Rat [31], 0.5 h | 44700
Rat [31], 48 h | 1600
Rat [32], 5 min | 13700
Rat [32], 36 h | 3100
Rat [33], 8 h | 8600
Rat [33], 12 h | 5100
Rat [34], 0.25 h | 14700
Rat [34], 24 h | 2900
Rat [35], 5 min | 11900
Rat [35], 36 h | 2000
Rat [37], 8 h | 8000
Rat [37], 12 h | 6700
Rat [38], 10 min | 8500
Rat [38], 18 h | 2900
Rat [39], 8 h | 7100
Rat [39], 12 h | 5600
Rat [40], 8 h | 5700
Rat [40], 12 h | 6800
Rat [42], 8 h | 26800
Rat [42], 12 h | 22600
Rat [43], 0.25 h | 13000
Rat [43], 24 h | 2100
Rat [45], 0.25 h | 17600
Rat [45], 24 h | 7700

Conditions | concentration in plasma [ng/mL]
Rat [2] | 12600
Rat [3] | 9600
Rat [4] | 14100
Rat [7] | 39700
Rat [8] | 13700
Rat [12] | 10500
Rat [16] | 12400
Rat [18] | 12800
Rat [22] | 11100
Rat [28] | 11100
Rat [29] | 13000
Rat [30] | 13400
Rat [36] | 12000
Rat [41] | 13400
Rat [44] | 13500

concentration in plasma [ng/mL], Rat [10]
Conditions | Female | Male
0.25 h, 10 mg/kg, F344 | – | 7100
0.25 h, 10 mg/kg, Harlan Sprague-Dawley | 13600 | –
0.25 h, 30 mg/kg, F344 | 37100 | –
0.5 h, 10 mg/kg, F344 | – | 14100
0.5 h, 10 mg/kg, Harlan Sprague-Dawley | 9300 | –
0.5 h, 30 mg/kg, F344 | 28200 | –
1 h, 10 mg/kg, F344 | – | 14700
2 h, 10 mg/kg, F344 | – | 12500
3 h, 10 mg/kg, F344 | – | 13700
5 h, 10 mg/kg, F344 | – | 14200
5 h, 10 mg/kg, Harlan Sprague-Dawley | 13000 | –
5 min, 10 mg/kg, F344 | – | 11800
5 min, 30 mg/kg, F344 | 46500 | –
8 h, 10 mg/kg, F344 | – | 8200
8 h, 30 mg/kg, F344 | 25000 | –
10 min, 10 mg/kg, F344 | 3500 | 14200
12 h, 10 mg/kg, F344 | – | 6300
12 h, 30 mg/kg, F344 | 21400 | –
18 h, 10 mg/kg, F344 | 3400 | 4000
24 h, 10 mg/kg, F344 | – | 3800
24 h, 10 mg/kg, Harlan Sprague-Dawley | 2300 | –
24 h, 30 mg/kg, F344 | 7900 | –
36 h, 10 mg/kg, F344 | – | 2300
36 h, 30 mg/kg, F344 | 4300 | –
48 h, 30 mg/kg, F344 | 1200 | –
